Laboratory results as given in patent US9820977B2, “Systemic treatment of blood-sucking and blood-consuming parasites by oral administration of a parasiticidal agent” (priority 2008, dated 2017).
Values joined by “and” are separate entries in the source; they are usually repeats but may differ in a detail not shown here. Identical values can stand only once.

What was measured:
[1] = given orally to control fleas; cited from earlier work
[2] = test system: Ctenocephalides felis; test: Flea infestation on dogs, oral dosing, pan and comb counts; type: in vivo; settings: for Mean Efficacy / 1 hour pan counts / 3 hour pan counts / Comb Count Day 1 / # Live Fleas Removed / 4 hour pan counts / 6 hour pan counts / Efficacy, Comb Count Day 2 (reinfested) / Efficacy, Comb Count Day 5 (reinfested) / Comb Count Day 2 (reinfested) / Comb Count Day 5 (reinfested) / Efficacy, Comb Count Day 1 / Average 1 hour pan counts / Average 3 hour pan counts: dogs; for Mean Efficacy / Efficacy, Comb Count Day 2 (reinfested) / Efficacy, Comb Count Day 5 (reinfested) / Efficacy, Comb Count Day 1: fleas
Description: Flea Species: Ctenocephalides felis
Number: ˜100 unfed adults per dog per infestation with a sex ratio of ˜50/50
(§1) Species/Strain/Source: Dog/beagles/Stillmeadow, Inc. dog colony
(§2) Body weights were recorded during the pretest period. Six dogs were selected for study, weighed and randomly assigned to two groups of three and infested with either 100 fleas or 50 ticks. For the flea study whose results are shown in Table 3, repeat 100 flea infestations were performed on Days 2 and 5, without additional dosing. For all studies, the Group I dogs served as untreated controls. All animals except those in Group II of the study whose results are reported in Table 1 were dosed orally with the test article in gelatin capsules. The Group II, Table 1 animals received 5 mg of imidacloprid active in a chewable drug delivery vehicle.
(§3) For blood collections, drawn blood was collected into lavender top Vacutainer® tubes. The tubes were centrifuged and plasma was drawn off and frozen at approximately −20° C. pending possible future shipment to the sponsor for analysis of levels of test article in the plasma. Comb and pan counts were conducted as noted in the Tables, following dosing. The number of live fleas and ticks removed during the comb counts was recorded as were, where noted in the Tables, dead tick counts.

[3] = test system: ticks; settings: given topically, imidacloprid alone; cited from earlier work
[4] = test system: Rhipicephalus sanguineus; test: Tick infestation on dogs, oral dosing, tick counts; type: in vivo; settings: for Attached Dead Day 2 / Dead Attached Day 6 / Dead Free Day 6 / Live Attached Day 6 / Live Free Day 6 / Ticks Removed Day 2 / Mean Efficacy / Efficacy / Dead Ticks / Live Ticks / Comb Count Day 3 Dead / Comb Count Day 3 Live / Hand Count Day 2: dogs; for Mean Efficacy / Efficacy / Comb Count Day 3 Dead / Comb Count Day 3 Live / Hand Count Day 2: ticks; for Efficacy: Day 6
Description: Tick Species: Rhipicephalus sanguineus
Number: ˜50 unfed adults per dog per infestation (˜25 male and ˜25 females)
as §1, §2, §3

[5] = oral 0.5 mg/kg, individual animals, 0.5 mg/kg
[6] = oral 1.0 mg/kg, individual animals, 1 mg/kg
[7] = oral 3.0 mg/kg single dose, group Mean
[8] = oral 3.0 mg/kg single dose, individual animals, 3 mg/kg
[9] = oral 3.0 mg/kg, individual animals, 3 mg/kg
[10] = oral 6.0 mg/kg single dose, group Mean
[11] = oral 6.0 mg/kg, individual animals, 6 mg/kg
[12] = oral 10.0 mg/kg single dose, group Mean
[13] = oral 10.0 mg/kg, individual animals, 10 mg/kg
[14] = oral 3 mg/kg, individual animals, 3 mg/kg
[15] = oral 10 mg/kg, individual animals, 10 mg/kg
[16] = oral 15 mg/kg, Day 1, group Mean
[17] = oral 15 mg/kg, Day 1, individual animals, 15 mg/kg
[18] = oral 22 mg/kg, Day 1, group Mean
[19] = oral 22 mg/kg, Day 1, individual animals, 22 mg/kg
[20] = oral 30 mg/kg, Day 1, group Mean
[21] = oral 30 mg/kg, Day 1, individual animals, 30 mg/kg
[22] = oral 30 mg/kg, individual animals, 30 mg/kg

For `N#Cc1nn(-c2c(Cl)cc(C(F)(F)F)cc2Cl)c(N)c1[S+]([O-])C(F)(F)F` (centres unmarked) [Fipronil, 5-amino-1-[2,6-dichloro-4-(trifluoromethyl)phenyl]-4-[(trifluoromethyl)sulfinyl]-1H-pyrazole-3-carbonitrile], the emesis [1] is given as “known to cause emesis”.

For `O=[N+]([O-])N=C1NCCN1Cc1ccc(Cl)nc1` [Imidacloprid, 1-[(6-chloro-3-pyridinyl)methyl]-N-nitro-2-imidazolidinimine], the “Mean Efficacy” value ([2]; oral 0.25 mg/kg, Day 1) was 100.0, the “1 hour pan counts” value ([2]; oral 0.25 mg/kg, group Mean) was 0.0 and the “3 hour pan counts” value ([2]; oral 0.25 mg/kg, group Mean) was 5.5. For the same molecule, the “1 hour pan counts” value ([2]; oral 0.25 mg/kg, individual animals) was 0, the “3 hour pan counts” value ([2]; oral 0.25 mg/kg, individual animals, 0.25 mg/kg) was 2 and 9 and the “Comb Count Day 1” value ([2]; oral 0.25 mg/kg, live fleas, group Mean) was 0.0. For the same molecule, the “Comb Count Day 1” value ([2]; oral 0.25 mg/kg, live fleas, individual animals) was 0, the “# Live Fleas Removed” value ([2]; oral 0.5 mg/kg, column after 4 hour pan counts, group Mean) was 22.7 and the “# Live Fleas Removed” value ([2]; oral 0.5 mg/kg, column after 4 hour pan counts, individual animals, 0.5 mg/kg) was 31 and 2 and 35. The “# Live Fleas Removed” value ([2]; oral 0.5 mg/kg, column after 6 hour pan counts, group Mean) was 0.0, the “# Live Fleas Removed” value ([2]; oral 0.5 mg/kg, column after 6 hour pan counts, individual animals) was 0 and the “Mean Efficacy” value ([2]; oral 0.5 mg/kg) was 100.0. The “4 hour pan counts” value ([2]; oral 0.5 mg/kg, group Mean) was 0.0, the “6 hour pan counts” value ([2]; oral 0.5 mg/kg, group Mean) was 39.7 and the “4 hour pan counts” value [2, 5] was 5 and 45 and 15. For the same molecule, the “6 hour pan counts” value [2, 5] was 39 and 33 and 47, the “# Live Fleas Removed” value ([2]; oral 1.0 mg/kg, column after 4 hour pan counts, group Mean) was 9.0 and the “# Live Fleas Removed” value ([2]; oral 1.0 mg/kg, column after 4 hour pan counts, individual animals, 1 mg/kg) was 4 and 12 and 11. The “# Live Fleas Removed” value ([2]; oral 1.0 mg/kg, column after 6 hour pan counts, group Mean) was 0.0, the “# Live Fleas Removed” value ([2]; oral 1.0 mg/kg, column after 6 hour pan counts, individual animals) was 0 and the “Mean Efficacy” value ([2]; oral 1.0 mg/kg) was 100.0. The “4 hour pan counts” value ([2]; oral 1.0 mg/kg, group Mean) was 41.7, the “6 hour pan counts” value ([2]; oral 1.0 mg/kg, group Mean) was 44.0 and the “4 hour pan counts” value [2, 6] was 44 and 41 and 40. For the same molecule, the “6 hour pan counts” value [2, 6] was 35 and 44 and 53, the “Efficacy, Comb Count Day 2 (reinfested)” value ([2]; oral 3.0 mg/kg single dose) was 68.1 and the “Efficacy, Comb Count Day 5 (reinfested)” value ([2]; oral 3.0 mg/kg single dose) was 42.1. The “Comb Count Day 2 (reinfested)” value [2, 7] was 22.3, the “Comb Count Day 5 (reinfested)” value [2, 7] was 25.3 and the “Comb Count Day 2 (reinfested)” value [2, 8] was 15 and 40 and 12. For the same molecule, the “Comb Count Day 5 (reinfested)” value [2, 8] was 32 and 80 and 42, the “Efficacy, Comb Count Day 1” value ([2]; oral 3.0 mg/kg) was 100.0 and the “Average 1 hour pan counts” value ([2]; oral 3.0 mg/kg, group Mean) was 1.3. For the same molecule, the “Average 3 hour pan counts” value ([2]; oral 3.0 mg/kg, group Mean) was 9.0, the “Comb Count Day 1” value ([2]; oral 3.0 mg/kg, group Mean) was 0.0 and the “Comb Count Day 1” value ([2]; oral 3.0 mg/kg, individual animals) was 0. The “Average 1 hour pan counts” value [2, 9] was 2 and 1 (2×), the “Average 3 hour pan counts” value [2, 9] was 7 and 9 and 11 and the “Efficacy, Comb Count Day 2 (reinfested)” value ([2]; oral 6.0 mg/kg single dose) was 100.0. For the same molecule, the “Efficacy, Comb Count Day 5 (reinfested)” value ([2]; oral 6.0 mg/kg single dose) was 79.3, the “Comb Count Day 2 (reinfested)” value [2, 10] was 0.0 and the “Comb Count Day 5 (reinfested)” value [2, 10] was 12.1. The “Comb Count Day 2 (reinfested)” value ([2]; oral 6.0 mg/kg single dose, individual animals) was 0, the “Comb Count Day 5 (reinfested)” value ([2]; oral 6.0 mg/kg single dose, individual animals, 6 mg/kg) was 7 and 17 and 31 and the “Efficacy, Comb Count Day 1” value ([2]; oral 6.0 mg/kg) was 100.0. For the same molecule, the “Average 1 hour pan counts” value ([2]; oral 6.0 mg/kg, group Mean) was 7.6, the “Average 3 hour pan counts” value ([2]; oral 6.0 mg/kg, group Mean) was 19.6 and the “Comb Count Day 1” value ([2]; oral 6.0 mg/kg, group Mean) was 0.0. For the same molecule, the “Comb Count Day 1” value ([2]; oral 6.0 mg/kg, individual animals) was 0, the “Average 1 hour pan counts” value [2, 11] was 5 and 6 and 12 and the “Average 3 hour pan counts” value [2, 11] was 13 and 22 and 27. The “Efficacy, Comb Count Day 2 (reinfested)” value ([2]; oral 10.0 mg/kg single dose) was 100.0, the “Efficacy, Comb Count Day 5 (reinfested)” value ([2]; oral 10.0 mg/kg single dose) was 97.7 and the “Comb Count Day 2 (reinfested)” value [2, 12] was 0.0. For the same molecule, the “Comb Count Day 5 (reinfested)” value [2, 12] was 2.0, the “Comb Count Day 2 (reinfested)” value ([2]; oral 10.0 mg/kg single dose, individual animals) was 0 and the “Comb Count Day 5 (reinfested)” value ([2]; oral 10.0 mg/kg single dose, individual animals, 10 mg/kg) was 0 and 5 and 1. The “Efficacy, Comb Count Day 1” value ([2]; oral 10.0 mg/kg) was 100.0, the “Average 1 hour pan counts” value ([2]; oral 10.0 mg/kg, group Mean) was 11.3 and the “Average 3 hour pan counts” value ([2]; oral 10.0 mg/kg, group Mean) was 19.0. For the same molecule, the “Comb Count Day 1” value ([2]; oral 10.0 mg/kg, group Mean) was 0.0, the “Comb Count Day 1” value ([2]; oral 10.0 mg/kg, individual animals) was 0 and the “Average 1 hour pan counts” value [2, 13] was 10 and 16 and 8. For the same molecule, the “Average 3 hour pan counts” value [2, 13] was 14 and 25 and 18, the “efficacious against pre-existing C. felis infestations” value ([2]; orally dosed at a rate as low as 0.25 mg/kg) was 100% and the “effective against a flea infestation on treated animals” value ([2]; single oral dose 0.25 mg/kg, within as little as an hour of administration) was 100%. For the same molecule, the effect on ticks [3] was “little or no effect on ticks”, the “Attached Dead Day 2” value ([4]; oral 3 mg/kg, group Mean) was 1 and the “Dead Attached Day 6” value ([4]; oral 3 mg/kg, group Mean) was 0. The “Dead Free Day 6” value ([4]; oral 3 mg/kg, group Mean) was 0.0, the “Live Attached Day 6” value ([4]; oral 3 mg/kg, group Mean) was 8 and the “Live Free Day 6” value ([4]; oral 3 mg/kg, group Mean) was 0. For the same molecule, the “Ticks Removed Day 2” value ([4]; oral 3 mg/kg, group Mean) was 18, the “Dead Free Day 6” value ([4]; oral 3 mg/kg, individual animals) was 0 and the “Attached Dead Day 2” value [4, 14] was 1 (2×) and 0. For the same molecule, the “Dead Attached Day 6” value [4, 14] was 2 (2×) and 0, the “Live Attached Day 6” value [4, 14] was 6 and 4 and 13 and the “Live Free Day 6” value [4, 14] was 1 and 0 (2×). The “Ticks Removed Day 2” value [4, 14] was 17 and 8 and 28, the “Mean Efficacy” value ([4]; oral 3 mg/kg, Day 2) was 15.9 and the Efficacy ([4]; oral 3 mg/kg) was 61.0. The “Attached Dead Day 2” value ([4]; oral 10 mg/kg, group Mean) was 3, the “Dead Attached Day 6” value ([4]; oral 10 mg/kg, group Mean) was 0 and the “Dead Free Day 6” value ([4]; oral 10 mg/kg, group Mean) was 0. The “Live Attached Day 6” value ([4]; oral 10 mg/kg, group Mean) was 17, the “Live Free Day 6” value ([4]; oral 10 mg/kg, group Mean) was 0 and the “Ticks Removed Day 2” value ([4]; oral 10 mg/kg, group Mean) was 20. The “Dead Free Day 6” value ([4]; oral 10 mg/kg, individual animals) was 0, the “Attached Dead Day 2” value [4, 15] was 2 and 0 and 6 and the “Dead Attached Day 6” value [4, 15] was 1 and 0 (2×). For the same molecule, the “Live Attached Day 6” value [4, 15] was 14 and 8 and 28, the “Live Free Day 6” value [4, 15] was 1 and 0 (2×) and the “Ticks Removed Day 2” value [4, 15] was 16 and 22 and 23. The “Mean Efficacy” value ([4]; oral 10 mg/kg, Day 2) was 3.2, the Efficacy ([4]; oral 10 mg/kg) was 15.3 and the “Dead Ticks” value [4, 16] was 1. The “Live Ticks” value [4, 16] was 15, the “Dead Ticks” value [4, 17] was 0 and 3 and 1 and the “Live Ticks” value [4, 17] was 33 and 2 and 10. The “Mean Efficacy” value ([4]; oral 15 mg/kg, Day 1) was 48.9, the “Dead Ticks” value [4, 18] was 1 and the “Live Ticks” value [4, 18] was 9. For the same molecule, the “Dead Ticks” value [4, 19] was 2 and 1 and 0, the “Live Ticks” value [4, 19] was 3 and 12 and 13 and the “Mean Efficacy” value ([4]; oral 22 mg/kg, Day 1) was 68.2. For the same molecule, the “Dead Ticks” value [4, 20] was 2, the “Live Ticks” value [4, 20] was 11 and the “Dead Ticks” value [4, 21] was 7 and 0 (2×). The “Live Ticks” value [4, 21] was 10 and 12 and 11, the “Mean Efficacy” value ([4]; oral 30 mg/kg, Day 1) was 62.5 and the “Mean Efficacy” value ([4]; oral 30 mg/kg, Day 3) was 79.5. The “Comb Count Day 3 Dead” value ([4]; oral 30 mg/kg, group Mean) was 1, the “Comb Count Day 3 Live” value ([4]; oral 30 mg/kg, group Mean) was 5 and the “Hand Count Day 2” value ([4]; oral 30 mg/kg, group Mean) was 9. The “Comb Count Day 3 Dead” value [4, 22] was 0 (2×) and 2, the “Comb Count Day 3 Live” value [4, 22] was 6 and 5 and 4 and the “Hand Count Day 2” value [4, 22] was 8 and 13 and 7. For the same molecule, the “effective against a tick infestation on treated animals” value ([4]; single oral dose 3 mg/kg, within as little as 24-48 hours of administration) was “at least 60%”.
